Measured values taken from ChEMBL document CHEMBL1201862, “PubChem BioAssay data set” (2004).
Active and inactive are the calls of the source.

Columns and labels:
[1] = growth suppression of beta-catenin-knockout colon cells, dose response, cell-based, HCT116, human colon tumor (AID 1045); type: functional;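 also: HCT116 colon tumor cells with beta catenin knocked out; cells exposed to compound for 60 hours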
Streptococcus = experiment: Group A Streptococcus viability loss, dose response, counter-screen for streptokinase expression inhibitor project, luminescence, BacTiterGlo (AID 1915); type: functional, organism-based;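 also: potency for reduction of bacterial viability or growth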
[2] = target: Bifunctional protein GlmU (Mycobacterium tuberculosis, UniProt P9WMN3); experiment: Inhibitors of Mycobacterial Glucosamine-1-phosphate acetyl transferase (GlmU). Secondary screen.; design: species or system Mycobacterium tuberculosis H37Rv
[3] = target: Intestinal-type alkaline phosphatase (Homo sapiens, UniProt P09923); experiment: activation of human intestinal alkaline phosphatase – biochemical, dose response (AID 488873); type: functional
[4] = MITF Orthogonal Assay: SK-MEL-5 CTG Assay Measured in Cell-Based System Using Plate Reader - 2084-02_Inhibitor_Dose_DryPowder_Activity_Set5.; type: functional
[5] = MITF Orthogonal Assay: MALME3 CTG Assay Measured in Cell-Based System Using Plate Reader - 2084-04_Inhibitor_Dose_DryPowder_Activity_Set6.; type: functional; settings: MALME-3
[6] = MITF Measured in Cell-Based System Using Plate Reader - 2084-01_Inhibitor_Dose_DryPowder_Activity_Set6.; type: functional
[7] = A375 melanoma cell cytotoxicity, dose response, counter-screen for MITF inhibitor project, CellTiter-Glo luminescence, dry powder, set 6 (AID 624488); type: functional, cell-based; settings: A-375
[8] = SK-MEL-5 parental line viability, dose response, MITF inhibitor project, cell-based, CellTiter-Glo, dry powder, set 6 (AID 624429); type: functional
Orexin receptor type 2 = target: T1, Orexin receptor type 2 (Homo sapiens, UniProt O43614); experiment: Counterscreen assay for antagonists of the orexin 1 receptor (OX1R; HCRTR1): Fluorescence-based cell-based dose response assay for antagonists of the orexin 2 receptor (OX2R; HCRTR2), run by assay provider.; type: functional
T1 sequence (O43614 whole entry): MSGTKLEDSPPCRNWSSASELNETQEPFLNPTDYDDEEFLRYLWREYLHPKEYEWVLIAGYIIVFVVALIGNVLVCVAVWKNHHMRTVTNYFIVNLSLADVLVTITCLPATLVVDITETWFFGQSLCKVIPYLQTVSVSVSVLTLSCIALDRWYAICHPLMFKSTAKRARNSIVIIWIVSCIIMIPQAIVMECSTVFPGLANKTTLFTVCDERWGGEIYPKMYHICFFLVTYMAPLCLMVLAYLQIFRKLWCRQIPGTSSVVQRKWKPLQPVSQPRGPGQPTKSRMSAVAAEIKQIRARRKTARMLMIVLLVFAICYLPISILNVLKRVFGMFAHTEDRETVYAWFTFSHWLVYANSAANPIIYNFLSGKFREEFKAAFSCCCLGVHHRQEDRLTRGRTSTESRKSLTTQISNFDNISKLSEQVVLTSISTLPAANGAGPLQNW

[9] = target: Calcium/calmodulin-dependent protein kinase type II subunit delta (Homo sapiens, UniProt Q13557); type: functional
[10] = target: Protein kinase C delta type (Homo sapiens, UniProt Q05655); type: functional
[11] = target: Mitogen-activated protein kinase kinase kinase kinase 2 (Homo sapiens, UniProt Q12851); type: functional;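 also: measured as one member of a kinome-wide kinase panel, with MAP4K2 as the panel entry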
Aurora kinase B = Aurora kinase B (Homo sapiens, UniProt Q96GD4); type: functional
[12] = target: Tyrosine-protein kinase ABL1 (Homo sapiens, UniProt P00519); type: functional
[13] = target: Tyrosine-protein kinase Blk (Homo sapiens, UniProt P51451); type: functional;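 also: obtained as one member of a kinome-wide kinase assay panel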
[14] = target: Mitogen-activated protein kinase 12 (Homo sapiens, UniProt P53778); type: functional;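 also: measured as one member of a kinome-wide kinase profiling panel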
[15] = target: Cyclin-dependent kinase 5 (Homo sapiens, UniProt Q00535); type: functional;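 also: CDK5 measured as one member of a kinase profiling panel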
[16] = target: Dual specificity tyrosine-phosphorylation-regulated kinase 1B (Homo sapiens, UniProt Q9Y463); experiment: Navigating the Kinome. Panel member name: DYRK1B; type: functional
[17] = target: Rho-associated protein kinase 1 (Homo sapiens, UniProt Q13464); type: functional;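 also: measured within a broad kinome-wide panel profiling many kinases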
[18] = target: Serine/threonine-protein kinase D3 (Homo sapiens, UniProt O94806); type: functional;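 also: determined within a kinase panel screen, with PRKCN as the panel member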
Misshapen-like kinase 1 = Misshapen-like kinase 1 (Homo sapiens, UniProt Q8N4C8); type: functional;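 also: kinome panel screen with MINK as the panel member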
[19] = target: 5'-AMP-activated protein kinase catalytic subunit alpha-1 (Homo sapiens, UniProt Q13131); type: functional
[20] = target: Mitogen-activated protein kinase kinase kinase kinase 5 (Homo sapiens, UniProt Q9Y4K4); type: functional;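 also: measured as one member of a kinome-spanning kinase panel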
[21] = target: cAMP-dependent protein kinase catalytic subunit alpha (Homo sapiens, UniProt P17612); type: functional
[22] = target: Dual specificity mitogen-activated protein kinase kinase 1 (Homo sapiens, UniProt Q02750); experiment: Navigating the Kinome. Panel member name: MAP2K1; type: functional
[23] = target: Testis-specific serine/threonine-protein kinase 2 (Homo sapiens, UniProt Q96PF2); type: functional;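 also: part of the Navigating the Kinome panel, target entry STK22B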
Insulin receptor = Insulin receptor (Homo sapiens, UniProt P06213); type: functional;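 also: insulin receptor kinase tested as one member of a kinome-wide kinase panel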
[24] = target: Ribosomal protein S6 kinase beta-1 (Homo sapiens, UniProt P23443); type: functional;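 also: measured as one member of a kinome-wide profiling panel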
[25] = target: Serine/threonine-protein kinase pim-2 (Homo sapiens, UniProt Q9P1W9); type: functional;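 also: value comes from a broad kinase panel profiling study in which PIM2 was one of the panel members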
[26] = target: Calcium/calmodulin-dependent protein kinase type II subunit gamma (Homo sapiens, UniProt Q13555); type: functional
[27] = target: cAMP-dependent protein kinase catalytic subunit PRKX (Homo sapiens, UniProt P51817); type: functional
[28] = target: Leukocyte tyrosine kinase receptor (Homo sapiens, UniProt P29376); experiment: Navigating the Kinome. Panel member name: LTK; type: functional
[29] = target: Tyrosine-protein kinase Srms (Homo sapiens, UniProt Q9H3Y6); type: functional;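 also: SRMS measured as one member of a kinome-wide kinase profiling panel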
[30] = target: Tyrosine-protein kinase JAK3 (Homo sapiens, UniProt P52333); type: functional
[31] = target: Macrophage colony-stimulating factor 1 receptor (Homo sapiens, UniProt P07333); type: functional;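 also: value comes from the Navigating the Kinome screening panel, CSF1R member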
[32] = target: MAP kinase-activated protein kinase 3 (Homo sapiens, UniProt Q16644); type: functional;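 also: value comes from a kinome-wide profiling panel in which MAPKAPK3 is one of the panel members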
[33] = target: Cyclin-dependent kinase 1 (Homo sapiens, UniProt P06493); type: functional;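 also: Kinome-wide panel profiling, with the target listed as panel member CDC2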
Chain of Cyclin-dependent kinase 1 (P06493 whole entry): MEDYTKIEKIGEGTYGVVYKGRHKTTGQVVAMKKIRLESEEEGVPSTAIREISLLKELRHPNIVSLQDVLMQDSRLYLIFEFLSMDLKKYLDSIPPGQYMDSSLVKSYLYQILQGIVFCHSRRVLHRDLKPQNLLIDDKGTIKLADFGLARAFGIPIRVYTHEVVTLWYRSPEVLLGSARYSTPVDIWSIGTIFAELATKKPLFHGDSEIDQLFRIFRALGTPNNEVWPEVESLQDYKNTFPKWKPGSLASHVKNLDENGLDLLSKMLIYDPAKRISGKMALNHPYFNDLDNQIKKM

Chain of Calcium/calmodulin-dependent protein kinase type II subunit delta (Q13557 whole entry): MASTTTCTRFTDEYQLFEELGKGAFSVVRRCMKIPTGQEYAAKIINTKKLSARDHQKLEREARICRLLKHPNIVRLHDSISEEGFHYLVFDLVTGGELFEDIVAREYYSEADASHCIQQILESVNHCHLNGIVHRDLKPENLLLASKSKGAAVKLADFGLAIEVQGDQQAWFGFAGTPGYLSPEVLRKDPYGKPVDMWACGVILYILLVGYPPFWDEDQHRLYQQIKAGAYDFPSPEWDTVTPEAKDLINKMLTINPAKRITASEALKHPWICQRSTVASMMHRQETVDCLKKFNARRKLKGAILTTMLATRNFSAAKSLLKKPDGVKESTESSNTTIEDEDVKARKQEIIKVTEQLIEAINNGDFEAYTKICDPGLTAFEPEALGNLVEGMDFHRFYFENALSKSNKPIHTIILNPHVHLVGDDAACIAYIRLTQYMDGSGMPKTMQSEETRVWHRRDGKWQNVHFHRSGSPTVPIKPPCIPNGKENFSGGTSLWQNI
Chain of Calcium/calmodulin-dependent protein kinase type II subunit gamma (Q13555 whole entry): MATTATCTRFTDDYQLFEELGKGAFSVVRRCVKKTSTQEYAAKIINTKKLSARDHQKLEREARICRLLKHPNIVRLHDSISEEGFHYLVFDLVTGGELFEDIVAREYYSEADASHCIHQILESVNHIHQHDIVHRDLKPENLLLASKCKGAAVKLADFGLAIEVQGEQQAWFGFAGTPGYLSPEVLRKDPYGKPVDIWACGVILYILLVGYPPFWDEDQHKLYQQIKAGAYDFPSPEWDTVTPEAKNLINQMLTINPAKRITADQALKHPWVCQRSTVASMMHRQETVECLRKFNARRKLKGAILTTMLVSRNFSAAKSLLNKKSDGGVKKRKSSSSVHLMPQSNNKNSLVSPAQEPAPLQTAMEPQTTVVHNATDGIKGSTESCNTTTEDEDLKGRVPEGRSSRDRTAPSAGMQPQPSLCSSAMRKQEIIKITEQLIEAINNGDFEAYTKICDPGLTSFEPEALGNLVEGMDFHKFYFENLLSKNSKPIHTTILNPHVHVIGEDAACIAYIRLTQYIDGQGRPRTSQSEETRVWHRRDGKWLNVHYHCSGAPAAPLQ
Chain of Tyrosine-protein kinase Srms (Q9H3Y6 whole entry): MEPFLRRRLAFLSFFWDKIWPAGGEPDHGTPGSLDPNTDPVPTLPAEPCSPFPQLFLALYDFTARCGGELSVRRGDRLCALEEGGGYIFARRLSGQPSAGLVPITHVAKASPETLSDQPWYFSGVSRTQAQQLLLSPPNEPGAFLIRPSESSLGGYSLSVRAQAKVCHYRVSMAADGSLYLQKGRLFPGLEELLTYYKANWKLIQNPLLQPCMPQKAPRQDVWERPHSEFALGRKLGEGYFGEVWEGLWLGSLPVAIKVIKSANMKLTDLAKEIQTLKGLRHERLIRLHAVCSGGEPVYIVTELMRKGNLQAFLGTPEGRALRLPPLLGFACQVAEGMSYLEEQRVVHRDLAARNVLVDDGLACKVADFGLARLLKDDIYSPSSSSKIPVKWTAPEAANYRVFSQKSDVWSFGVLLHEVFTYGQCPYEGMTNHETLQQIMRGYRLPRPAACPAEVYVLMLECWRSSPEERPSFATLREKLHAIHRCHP
Chain of Intestinal-type alkaline phosphatase (P09923 whole entry): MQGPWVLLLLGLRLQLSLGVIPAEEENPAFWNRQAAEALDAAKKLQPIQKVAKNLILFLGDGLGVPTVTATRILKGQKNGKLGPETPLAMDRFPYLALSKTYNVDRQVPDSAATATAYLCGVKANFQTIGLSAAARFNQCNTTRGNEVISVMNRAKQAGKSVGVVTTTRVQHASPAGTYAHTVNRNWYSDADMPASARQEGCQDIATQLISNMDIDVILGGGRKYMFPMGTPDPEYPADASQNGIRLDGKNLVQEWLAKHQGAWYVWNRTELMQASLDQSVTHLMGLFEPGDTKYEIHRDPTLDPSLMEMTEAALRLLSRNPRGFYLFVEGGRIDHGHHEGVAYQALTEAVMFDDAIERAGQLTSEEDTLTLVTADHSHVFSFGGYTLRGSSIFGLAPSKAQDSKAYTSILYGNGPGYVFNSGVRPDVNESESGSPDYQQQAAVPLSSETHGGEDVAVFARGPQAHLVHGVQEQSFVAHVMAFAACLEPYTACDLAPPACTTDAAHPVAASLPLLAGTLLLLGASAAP
Chain of Cyclin-dependent kinase 5 (Q00535 whole entry): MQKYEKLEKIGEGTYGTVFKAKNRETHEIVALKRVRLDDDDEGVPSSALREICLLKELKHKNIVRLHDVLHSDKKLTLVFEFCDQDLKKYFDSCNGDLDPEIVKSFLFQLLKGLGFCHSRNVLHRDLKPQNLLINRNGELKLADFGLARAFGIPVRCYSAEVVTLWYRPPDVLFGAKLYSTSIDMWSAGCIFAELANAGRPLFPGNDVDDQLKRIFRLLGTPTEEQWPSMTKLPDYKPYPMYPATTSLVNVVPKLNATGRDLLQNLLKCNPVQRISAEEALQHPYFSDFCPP
Chain of Misshapen-like kinase 1 (Q8N4C8 whole entry): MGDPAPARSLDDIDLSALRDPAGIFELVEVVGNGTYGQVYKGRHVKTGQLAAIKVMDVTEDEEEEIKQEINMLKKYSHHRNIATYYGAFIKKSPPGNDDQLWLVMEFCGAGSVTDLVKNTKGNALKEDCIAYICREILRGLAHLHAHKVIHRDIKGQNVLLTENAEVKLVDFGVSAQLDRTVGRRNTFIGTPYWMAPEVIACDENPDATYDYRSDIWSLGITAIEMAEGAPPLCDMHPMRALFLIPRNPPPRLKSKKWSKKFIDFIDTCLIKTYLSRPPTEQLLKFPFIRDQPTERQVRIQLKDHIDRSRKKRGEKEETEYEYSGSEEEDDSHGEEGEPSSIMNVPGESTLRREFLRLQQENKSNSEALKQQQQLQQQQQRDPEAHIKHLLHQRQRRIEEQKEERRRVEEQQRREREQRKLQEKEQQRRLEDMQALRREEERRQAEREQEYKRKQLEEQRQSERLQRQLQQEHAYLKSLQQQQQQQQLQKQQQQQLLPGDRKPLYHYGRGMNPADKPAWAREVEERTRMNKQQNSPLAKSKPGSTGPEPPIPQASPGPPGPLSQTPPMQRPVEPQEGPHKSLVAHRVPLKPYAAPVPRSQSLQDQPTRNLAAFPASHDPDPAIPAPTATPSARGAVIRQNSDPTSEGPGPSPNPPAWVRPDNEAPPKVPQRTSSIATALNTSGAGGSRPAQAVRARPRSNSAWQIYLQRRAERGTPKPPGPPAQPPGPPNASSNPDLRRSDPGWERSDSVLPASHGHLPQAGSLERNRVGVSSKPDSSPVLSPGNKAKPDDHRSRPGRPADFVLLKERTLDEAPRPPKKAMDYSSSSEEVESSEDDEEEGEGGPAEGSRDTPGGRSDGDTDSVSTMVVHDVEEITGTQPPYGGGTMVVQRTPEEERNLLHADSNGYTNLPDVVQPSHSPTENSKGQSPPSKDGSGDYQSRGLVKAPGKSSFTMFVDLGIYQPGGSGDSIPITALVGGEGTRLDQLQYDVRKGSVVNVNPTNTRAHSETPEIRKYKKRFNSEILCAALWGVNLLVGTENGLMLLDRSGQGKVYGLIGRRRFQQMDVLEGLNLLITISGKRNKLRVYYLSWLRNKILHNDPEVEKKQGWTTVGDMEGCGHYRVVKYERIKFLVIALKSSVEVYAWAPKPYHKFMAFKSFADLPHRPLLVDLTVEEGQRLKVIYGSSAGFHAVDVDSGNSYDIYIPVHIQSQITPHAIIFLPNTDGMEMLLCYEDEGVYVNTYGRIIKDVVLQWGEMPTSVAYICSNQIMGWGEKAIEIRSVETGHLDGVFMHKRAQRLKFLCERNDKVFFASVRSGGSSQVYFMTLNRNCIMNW
Chain of Macrophage colony-stimulating factor 1 receptor (P07333 whole entry): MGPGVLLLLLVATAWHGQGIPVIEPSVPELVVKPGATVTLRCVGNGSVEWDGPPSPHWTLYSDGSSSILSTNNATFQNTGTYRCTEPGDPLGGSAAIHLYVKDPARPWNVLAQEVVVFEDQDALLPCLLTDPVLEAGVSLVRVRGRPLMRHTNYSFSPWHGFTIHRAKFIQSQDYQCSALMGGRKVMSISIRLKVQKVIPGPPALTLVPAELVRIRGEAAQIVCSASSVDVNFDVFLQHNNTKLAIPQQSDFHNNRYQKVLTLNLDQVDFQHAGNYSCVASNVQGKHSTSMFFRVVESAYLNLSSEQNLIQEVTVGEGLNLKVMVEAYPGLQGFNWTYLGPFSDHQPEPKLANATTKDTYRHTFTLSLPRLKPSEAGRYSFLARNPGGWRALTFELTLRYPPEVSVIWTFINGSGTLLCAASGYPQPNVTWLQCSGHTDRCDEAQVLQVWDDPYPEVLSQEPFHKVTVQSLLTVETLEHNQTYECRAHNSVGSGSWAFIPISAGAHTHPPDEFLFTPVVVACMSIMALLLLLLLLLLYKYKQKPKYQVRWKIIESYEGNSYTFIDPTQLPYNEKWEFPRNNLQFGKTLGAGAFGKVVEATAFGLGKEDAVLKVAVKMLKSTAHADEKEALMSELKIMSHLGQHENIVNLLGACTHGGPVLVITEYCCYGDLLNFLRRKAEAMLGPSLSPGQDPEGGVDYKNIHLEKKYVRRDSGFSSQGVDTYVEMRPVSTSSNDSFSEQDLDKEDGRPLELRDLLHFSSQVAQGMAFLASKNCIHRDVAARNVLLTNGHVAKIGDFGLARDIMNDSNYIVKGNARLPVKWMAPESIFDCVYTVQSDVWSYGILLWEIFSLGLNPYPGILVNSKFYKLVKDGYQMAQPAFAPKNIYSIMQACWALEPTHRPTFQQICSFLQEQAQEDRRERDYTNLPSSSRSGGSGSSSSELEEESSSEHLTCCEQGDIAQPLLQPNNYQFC

CCOC(=O)C(C(=O)OCC)c1cc(Br)c2noc3c2c1C(=O)c1ccccc1-3
EC50 [1]: 4390 nM (active) | EC50 (Streptococcus): > 150000 nM (not active)

CS(=O)(=O)c1ccc2c(c1)SC1=NC(=O)/C(=C/c3ccc(O)c(O)c3)C(=N)N12
IC50 [2]: 159000 nM (active) | EC50 [3]: 61000 nM (active)

C=CCNC1=C(Cl)C(=O)c2ccccc2C1=O
AC50 [4]: 1700 nM (active) | AC50 [5]: 9990 nM (active) | AC50 [6]: 1560 nM (active) | AC50 [7]: 50400 nM (active) | AC50 [8]: 3820 nM (active)

CN(C)c1ccc(-c2nnc(-c3cccs3)o2)cc1
IC50 (Orexin receptor type 2): > 88800 nM (inactive)

COc1ccc(C(=O)Nc2n[nH]c3ccc(-c4cn(Cc5ccccc5)nn4)cc23)cc1OC
Ki [9]: 794 nM (active) | Ki [10]: 3160 nM (active) | Ki [11]: 398 nM (active) | Ki (Aurora kinase B): 200 nM (active) | Ki [12]: > 631 nM (inactive) | Ki [13]: 1260 nM (active) | Ki [14]: 631 nM (active) | Ki [15]: 12.6 nM (active) | Ki [16]: 15.8 nM (active) | Ki [17]: 1260 nM (active) | Ki [18]: 1580 nM (active) | Ki (Misshapen-like kinase 1): 251 nM (active) | Ki [19]: 63.1 nM (active) | Ki [20]: 501 nM (active) | Ki [21]: 501 nM (active) | Ki [22]: 1260 nM (active) | Ki [23]: 79.4 nM (active) | Ki (Insulin receptor): 1260 nM (active) | Ki [24]: 100 nM (active) | Ki [25]: > 2510 nM (inactive) | Ki [26]: 316 nM (active) | Ki [27]: 50.1 nM (active) | Ki [28]: > 2510 nM (inactive) | Ki [29]: > 1580 nM (inactive) | Ki [30]: 1000 nM (active) | Ki [31]: > 1580 nM (inactive) | Ki [32]: > 10000 nM (inactive) | Ki [33]: 39.8 nM (active)
